From PMC9020739, “Identification of a two-component regulatory system involved in antimicrobial peptide resistance in Streptococcus pneumoniae” (PLoS Pathogens, 2022)
Values after ≈ are worked out from the molar mass of the structure shown. Where a SMILES comes first, the peptide text is derived from it. Bridges are numbered along the chain shown (N, C = ends). [ ]: non-standard residue; d: D form. The star is where a group is joined. Ileψ(thiazoline)Cys = CC[C@H](C)[C@H](N)C1=N[C@H](C(=O)*)CS1; dOrn = NCCC[C@@H](N)C(=O)O

Experiments:
Format in all cases: cell-based, Streptococcus pneumoniae
S. pneumoniae D39 WT = conditions: D39 strain
Description: (§1) The MIC of various antimicrobial peptides for R6, R800 and D39 strains was determined by classical 2-fold broth dilution method. Cells were first grown in Todd-Hewitt medium at 37°C without agitation and in anaerobic conditions until the absorbance reaches approximatively 0.3. Complementation strains were grown with 0.5 μM ComS inducer until the appropriate OD. Cells were then diluted at final OD600nm = 0.002 in 96-well plates containing 300 μL of Todd-Hewitt medium (and 2 μM ComS inducer for the complementation strains) with serial dilutions of antimicrobial peptides. Pneumococcal growth was monitored by a microplate reader (TECAN) at 37°C without agitation. The absorbance was followed at 600 nm every 15 min for 15 h.

S. pneumoniae R6 WT = conditions: R6 strain
Description: as §1

S. pneumoniae D39 Δtcs01 = conditions: D39 strain; 2-fold broth dilution, Todd-Hewitt medium, 37°C, 15 h; two to four biological replicates, each technical duplicates
Description: as §1

[1] = test system: S. pneumoniae R800 ΔbceAB-Δhk01-PcomX-hk01; conditions: R800 complementation strain, 2 μM ComS inducer; 2-fold broth dilution, Todd-Hewitt medium, 37°C, 15 h; at least biological triplicates, each technical duplicates
Description: as §1

[2] = test system: S. pneumoniae R6 ΔbceAB/tcs01; conditions: R6 strain; 2-fold broth dilution, Todd-Hewitt medium, 37°C, 15 h; two to four biological replicates, each technical duplicates
Description: as §1

S. pneumoniae R6 Δtcs01 = conditions: R6 strain; 2-fold broth dilution, Todd-Hewitt medium, 37°C, 15 h; two to four biological replicates, each technical duplicates
Description: as §1

S. pneumoniae R6 ΔbceAB = conditions: R6 strain; 2-fold broth dilution, Todd-Hewitt medium, 37°C, 15 h; two to four biological replicates, each technical duplicates
Description: as §1

[3] = test system: S. pneumoniae R800 ΔbceAB; conditions: R800 strain; 2-fold broth dilution, Todd-Hewitt medium, 37°C, 15 h; at least biological triplicates, each technical duplicates
Description: as §1

[4] = test system: S. pneumoniae R800 bceAB-gfp; conditions: R800 strain; 2-fold broth dilution, Todd-Hewitt medium, 37°C, 15 h; at least biological triplicates, each technical duplicates
Description: as §1

[5] = test system: S. pneumoniae R800 Δhk01-PcomX-hk01
Description: as §1

S. pneumoniae R800 WT = conditions: R800 strain; 2-fold broth dilution, Todd-Hewitt medium, 37°C, 15 h; at least biological triplicates, each technical duplicates
Description: as §1

S. pneumoniae R800 Δhk01 = conditions: R800 strain; 2-fold broth dilution, Todd-Hewitt medium, 37°C, 15 h; at least biological triplicates, each technical duplicates
Description: as §1

S. pneumoniae D39 ΔbceAB = conditions: D39 strain; 2-fold broth dilution, Todd-Hewitt medium, 37°C, 15 h; two to four biological replicates, each technical duplicates
Description: as §1

[6] = test system: S. pneumoniae D39 ΔbceAB/tcs01; conditions: D39 strain; 2-fold broth dilution, Todd-Hewitt medium, 37°C, 15 h; two to four biological replicates, each technical duplicates
Description: as §1

## CC[C@H](C)[C@H](N)C1=N[C@H](C(=O)N[C@@H](CC(C)C)C(=O)N[C@H](CCC(=O)O)C(=O)N[C@H](C(=O)N[C@H]2CCCCNC(=O)[C@H](CC(N)=O)NC(=O)[C@@H](CC(=O)O)NC(=O)[C@H](Cc3cnc[nH]3)NC(=O)[C@@H](Cc3ccccc3)NC(=O)[C@H]([C@@H](C)CC)NC(=O)[C@@H](CCCN)NC2=O)[C@@H](C)CC)CS1 [bacitracin] ({Ileψ(thiazoline)Cys}-L[dE]IK[dOrn]I[dF]H[dD]N; lactam 4-C (inferred); N-terminus assumed)
S. pneumoniae D39 WT; 2-fold broth dilution, Todd-Hewitt medium, 37°C, 15 h, two to four biological replicates, each technical duplicates
  Minimum Inhibitory Concentration, WT: 4 µg/mL
S. pneumoniae D39 WT; KO strains versus WT MIC
  Fold sensitivity diplayed by the KO strains: 4
S. pneumoniae R6 WT; 2-fold broth dilution, Todd-Hewitt medium, 96-well plates, start OD600 0.002, 37°C, A600 followed 15 h, two to four biological replicates, each technical duplicates
  Minimum Inhibitory Concentration, WT: 8 µg/mL
S. pneumoniae R6 WT; KO strains versus WT MIC
  Fold sensitivity displayed by the KO strains: 8
S. pneumoniae D39 Δtcs01
  Minimum Inhibitory Concentration, Δtcs01: 1 µg/mL
[1]
  MIC, ΔbceAB-Δhk01-PcomX-hk01: 1 µg/mL (≈ 0.703 µM)
[2]
  Minimum Inhibitory Concentration, ΔbceAB/tcs01: 1 µg/mL
S. pneumoniae R6 Δtcs01
  Minimum Inhibitory Concentration, Δtcs01: 1 µg/mL
S. pneumoniae R6 ΔbceAB
  Minimum Inhibitory Concentration, ΔbceAB: 1 µg/mL
[3]
  MIC, ΔbceAB: 1 µg/mL (≈ 0.703 µM)
[4]
  MIC, bceAB-gfp: 4 µg/mL (≈ 2.81 µM)
[5]; R800-Δhk01-PcomX-rr01-hk01 versus R800 WT, from MICs
  Resistance as compared to the WT strain: 64 fold
[5]; R800 complementation strain, 2 μM ComS inducer, 2-fold broth dilution, Todd-Hewitt medium, 37°C, 15 h, at least biological triplicates, each technical duplicates
  MIC, Δhk01-PcomX-hk01: 256 µg/mL (≈ 180 µM)
S. pneumoniae R800 WT
  MIC, WT: 4 µg/mL (≈ 2.81 µM)
S. pneumoniae R800 Δhk01
  MIC, Δhk01: 1 µg/mL (≈ 0.703 µM)
S. pneumoniae D39 ΔbceAB
  Minimum Inhibitory Concentration, ΔbceAB: 1 µg/mL
[6]
  Minimum Inhibitory Concentration, ΔbceAB/tcs01: 1 µg/mL
